Results from patent US20250332138A1, “PHARMACEUTICAL COMPOSITION FOR PREVENTING OR TREATING MENTAL DISORDER” (Vivozon, Inc., priority 2022, published 2025).

Experiments:
human 5-HT2A receptor = molecular target: T1, human 5-HT2A receptor (Homo sapiens, UniProt P28223); experiment: HTRF-based IP1 accumulation assay; settings: HEK293 cell line overexpressing human 5-HT2A receptor; serotonin at EC80; IP1 production; read-out: Human 5-HT2AR (IC50)
T1 construct: expressed in transfected cells; host or cells: HEK293
T1 sequence (P28223 whole entry): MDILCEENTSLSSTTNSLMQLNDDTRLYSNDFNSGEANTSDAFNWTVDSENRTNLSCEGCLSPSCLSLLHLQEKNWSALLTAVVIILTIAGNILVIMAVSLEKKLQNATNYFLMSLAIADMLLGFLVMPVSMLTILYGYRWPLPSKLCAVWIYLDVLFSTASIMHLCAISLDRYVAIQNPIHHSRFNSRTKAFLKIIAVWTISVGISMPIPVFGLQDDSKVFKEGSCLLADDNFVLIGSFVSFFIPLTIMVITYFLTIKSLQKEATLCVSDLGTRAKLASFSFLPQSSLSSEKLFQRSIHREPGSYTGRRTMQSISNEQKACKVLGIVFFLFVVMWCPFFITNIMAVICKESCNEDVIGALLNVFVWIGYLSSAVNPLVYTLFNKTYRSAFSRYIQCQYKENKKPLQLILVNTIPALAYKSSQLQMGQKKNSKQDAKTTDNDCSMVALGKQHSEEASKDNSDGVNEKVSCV
Description: The 5-HT2A receptor antagonistic effect of the test compounds was confirmed by measuring the production amount of IP1 using the HEK293 cell line permanently overexpressing the human 5-HT2A receptor. The test compounds were dissolved in 100% DMSO to a final concentration of 10 mM. The starting concentration of 10 μM was prepared from the stock solution, followed by serial dilutions to prepare working solutions in a buffer containing lithium chloride (LiCl). The cells and compounds prepared in the test buffer were placed in a 96-well plate and incubated at room temperature for 10 minutes. Serotonin of EC80 concentration was added, followed by incubation at 37° C. for 30 minutes in a light-shielding state. To measure IP1 accumulation in cells, IP1-d2 acceptor and IP1-Cryptate donor—which are HTRF-based substances for fluorescence signals—were added and incubated for 1 hour at room temperature in a light-shielded state. The fluorescent emission signals of acceptor and donor were detected, and HTRF ratio values were substracted by mean value of serotonin control. The percentage of activation was calculated by normalization of the serotonin control (0%) and IP1 control (100%). The IC50 values of the test compounds are represented in Table 2. (+: 500-1,000 nM, ++: 100-500 nM, +++: less than 100 nM).

mGluR5 = molecular target: T2, mGluR5 (Homo sapiens, UniProt P41594); experiment: Fluorescence-based Ca2+ mobilization assay; settings: HEK293 cell line overexpressing mGluR5; L-glutamate at EC80; Ca2+ level, FLIPR
T2 construct: expressed in transfected cells; host or cells: HEK293
T2 sequence (P41594 21-1212): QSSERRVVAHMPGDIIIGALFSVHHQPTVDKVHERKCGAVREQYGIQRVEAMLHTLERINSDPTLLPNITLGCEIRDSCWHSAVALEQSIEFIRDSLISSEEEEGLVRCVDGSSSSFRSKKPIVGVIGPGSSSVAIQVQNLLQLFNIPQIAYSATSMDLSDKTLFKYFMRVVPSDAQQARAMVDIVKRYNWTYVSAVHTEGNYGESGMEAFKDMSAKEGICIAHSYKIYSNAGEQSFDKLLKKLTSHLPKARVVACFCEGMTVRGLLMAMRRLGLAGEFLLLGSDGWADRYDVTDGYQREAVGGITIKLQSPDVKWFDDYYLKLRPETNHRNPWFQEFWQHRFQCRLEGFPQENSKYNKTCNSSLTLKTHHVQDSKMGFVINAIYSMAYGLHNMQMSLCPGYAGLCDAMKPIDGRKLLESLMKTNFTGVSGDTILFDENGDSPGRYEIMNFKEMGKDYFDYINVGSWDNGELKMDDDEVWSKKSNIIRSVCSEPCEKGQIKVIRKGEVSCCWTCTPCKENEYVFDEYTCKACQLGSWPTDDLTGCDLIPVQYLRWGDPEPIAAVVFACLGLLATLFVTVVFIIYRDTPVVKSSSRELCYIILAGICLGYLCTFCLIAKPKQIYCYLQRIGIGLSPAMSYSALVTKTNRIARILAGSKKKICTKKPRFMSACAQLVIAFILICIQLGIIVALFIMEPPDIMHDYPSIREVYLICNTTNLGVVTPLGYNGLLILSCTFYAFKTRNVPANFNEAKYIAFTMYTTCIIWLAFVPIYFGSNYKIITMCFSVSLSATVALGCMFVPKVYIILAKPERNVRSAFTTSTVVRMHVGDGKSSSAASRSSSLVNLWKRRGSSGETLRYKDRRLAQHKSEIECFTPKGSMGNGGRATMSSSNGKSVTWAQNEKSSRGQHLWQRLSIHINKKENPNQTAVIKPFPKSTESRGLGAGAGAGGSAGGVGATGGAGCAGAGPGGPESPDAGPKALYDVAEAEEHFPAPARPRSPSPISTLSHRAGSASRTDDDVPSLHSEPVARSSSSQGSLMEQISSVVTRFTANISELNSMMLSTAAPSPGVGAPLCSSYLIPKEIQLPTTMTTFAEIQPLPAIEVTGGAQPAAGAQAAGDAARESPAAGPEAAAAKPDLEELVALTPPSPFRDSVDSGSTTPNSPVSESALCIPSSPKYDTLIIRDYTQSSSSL
Description: In order to measure the activity on the mGluR5, an experiment was carried out to check the change in the intracellular Ca^2+ level using the HEK293 cell line permenantly overexpressing the mGluR5. The cells in the cell culture medium were aliquoted into a 384-well plate coated with poly-D-lysine and cultured in a 37° C. incubator supplied with 5% CO2. The next day, the medium was removed and a dye loading buffer—in which a reagent capable of measuring Ca^2+ was dissolved—was added, and then incubated at 37° C. for 60 minutes. The test compounds were dissolved in 100% DMSO at a final concentration of 10 mM to make a stock solution. The starting concentration of 10 μM was prepared from the stock solution, followed by serial dilutions to prepare working solutions (test compound working solutions). The test compound working solutions were added to the cells that were incubated in the dye loading buffer, which were maintained for 30 minutes at room temperature in a light-shielding state before measurement. The Ca^2+ level change induced by L-glutamate at EC80 concentration was measured for 2 minutes using FLIPR Tetra (MDS Analytical Technologies). The fluorescent Ca^2+ signal values in the presence of the test compounds were normalized to the fluorescent singal elicited by EC80 concentration of L-glutamate as 100% and that elicited by vehicle as 0% to estimate % inhibition of the test compounds. The efficacy of the test compounds was calculated as IC50 values and represented in Table 2. (+: 500-1,000 nM, ++: 100-500 nM, +++: less than 100 nM).

[1] = tested on: patients with cocaine use disorder; settings: 68 patients with cocaine use disorder; cited from earlier work
[2] = tested on: neurons in the ventral tegmental area; settings: cited from earlier work
amygdala = settings: cited from earlier work
test animals [3] = settings: injected into the amygdala; cited from earlier work
test animals [4] = settings: injected into the amygdala; cited from earlier work; remark: listed apart in the source
mouse = mouse tail suspension test; cited from earlier work
male Sprague-Dawley rats = experiment: Acquisition of morphine intravenous self-administration (prevention of drug addiction); type: in vivo, rat; settings: 8 days, vs solvent control
Description: The experimental animals and the experimental methods for intravenous self-administration were performed in a similar manner to Example 1, and Test Compounds A and C were used as the test compounds.
To investigate the preventive effect of the test compounds on morphine addiction, rats recovering from surgery were subjected to morphine intravenous self-administration (IVSA) for eight (8) consecutive days, with 2-hours sessions each day, using a fixed ratio of 1 (FR1) (0.1 mg/kg/infusion, 0.1 mL delivered within 4 seconds). Test compounds A and C were dissolved in water containing 0.5% HPMC (hydroxypropyl methylcellulose) and 1% Tween 80, and administered orally at doses of 5 mg/kg and 100 mg/kg, respectively, 2 hours before morphine IVSA. The preventive effects on acquisition of morphine IVSA were measured, and the results are represented in FIGS. 4 and 5.

cocaine-addicted rats = settings: cited from earlier work
rat = rat forced swim test; cited from earlier work

Compound | IC50 (human 5-HT2A receptor) | IC50 (mGluR5) | further results
CC1(CNC(=O)c2ccc(C#Cc3ccc(F)cc3F)cc2)CCOCC1 [Compound 24, 4-((2,4-difluorophenyl)ethynyl)-N-((4-methyltetrahydro-2H-pyran-4-yl)methyl)benzamide] | 100 to 500 nM | < 100 nM | –
O=C(NCC1(O)CCCCC1)c1ccc(C#Cc2ccc(F)cc2F)cc1 [Compound 28, 4-((2,4-difluorophenyl)ethynyl)-N-((1-hydroxycyclohexyl)methyl)benzamide] | 100 to 500 nM | 500 to 1000 nM | –
O=C(NCC1(O)CCCCC1)c1ccc(C#Cc2ccc(F)cc2)cc1 [Compound 26, 4-((4-fluorophenyl)ethynyl)-N-((1-hydroxycyclohexyl)methyl)benzamide] | 100 to 500 nM | < 100 nM | –
O=C(NC[C@@H]1CCOC1)c1ccc(C#Cc2ccc(F)cc2F)cc1 [Compound 19, (S)-4-((2,4-difluorophenyl)ethynyl)-N-((tetrahydrofuran-3-yl)methyl)benzamide] | – | 100 to 500 nM | –
O=C(NCCC1CCOCC1)c1ccc(C#Cc2ccc(F)cc2F)cc1 [Compound 25, 4-((2,4-difluorophenyl)ethynyl)-N-(2-(tetrahydro-2H-pyran-4-yl)ethyl)benzamide] | < 100 nM | 100 to 500 nM | –
COC(=O)N1CC[C@@H]2[C@H]1CCC[C@@]2(O)C#Cc1cccc(C)c1 [mavoglurant] | – | – | clinical efficacy [1]: confirmed
CC1(O)CC(CNC(=O)c2ccc(C#Cc3ccccc3F)cc2)C1 (stereo not drawn) [Compound 12, 4-((2-fluorophenyl)ethynyl)-N-(((1s,3s)-3-hydroxy-3-methylcyclobutyl)methyl)benzamide] | 100 to 500 nM | < 100 nM | –
Cc1nc2sccn2c(=O)c1CCN1CCC(=C(c2ccc(F)cc2)c2ccc(F)cc2)CC1 [ritanserin] | – | – | dopamine secretion [2]: inhibited
O=C(NCC1(O)CCC1)c1ccc(C#Cc2ccc(F)cc2)cc1 [Compound 27, 4-((4-fluorophenyl)ethynyl)-N-((1-hydroxycyclobutyl)methyl)benzamide] | < 100 nM | < 100 nM | –
Cc1cccc(C#Cc2ccccc2)n1 [MPEP] | – | – | formation of long-term potentiation (LTP) in the amygdala (amygdala): inhibiting; number of entries into the open arm (test animals [3]): increased; time the test animals spend in the open arm (test animals [3]): increased; time the test animals spend in the bright area (test animals [4]): increased; immobility time (mouse): decreased immobility time in a dose-dependent manner
O=C(NCC1CCOCC1)c1ccc(C#Cc2ccccc2F)cc1 [Compound 1, 4-((2-fluorophenyl)ethynyl)-N-((tetrahydro-2H-pyran-4-yl)methyl)benzamide] | – | – | number of injections (acquisition of morphine self-administration) (male Sprague-Dawley rats; 100 mg/kg orally 2 hours before morphine IVSA, FIG. 5): significantly lower
O=C(NC[C@H]1CCOC1)c1ccc(C#Cc2ccc(F)cc2F)cc1 [Compound 18, (R)-4-((2,4-difluorophenyl)ethynyl)-N-((tetrahydrofuran-3-yl)methyl)benzamide] | – | 100 to 500 nM | –
O=C(c1ccc(F)cc1)C1CCN(CCn2c(=O)[nH]c3ccccc3c2=O)CC1 [ketanserin] | – | – | cocaine-induced increase in dopamine ([2]; pretreatment): suppressed; self-administration restored by signal stimulation (cocaine-addicted rats): reduced
[2H]C(NC(=O)c1ccc(C#Cc2ccccc2F)cc1)C1(C)COC1 (stereo not drawn) [Compound 16, 4-((2-fluorophenyl)ethynyl)-N-((3-methyloxetan-3-yl)methyl-d)benzamide] | 100 to 500 nM | – | –
Cc1nc(C#Cc2cccnc2)cs1 [MTEP, 3-[(2-methyl-1,3-thiazol-4-yl)ethynyl]pyridine] | – | – | immobility time (rat): reducing immobility time
O=C(NCC1CCC1)c1ccc(C#Cc2ccc(F)cc2F)cc1 [Compound 30, N-(cyclobutylmethyl)-4-((2,4-difluorophenyl)ethynyl)benzamide] | 100 to 500 nM | 100 to 500 nM | –
CC1(CNC(=O)c2ccc(C#Cc3ccccc3F)cc2)COC1 [Compound 6, 4-((2-fluorophenyl)ethynyl)-N-((3-methyloxetan-3-yl)methyl)benzamide] | – | – | number of injections (acquisition of morphine self-administration) (male Sprague-Dawley rats; 5 mg/kg orally 2 hours before morphine IVSA, FIG. 4): significantly lower
O=C(NCC1(O)CCC1)c1ccc(C#Cc2ccc(F)cc2F)cc1 [Compound 29, 4-((2,4-difluorophenyl)ethynyl)-N-((1-hydroxycyclobutyl)methyl)benzamide] | < 100 nM | 100 to 500 nM | –
COc1cccc([C@H](O)C2CCN(CCc3ccc(F)cc3)CC2)c1OC [Compound M100907] | – | – | dopamine secretion [2]: inhibited
COc1cc(CC(C)N)c(OC)cc1I (stereo not drawn) [DOI, 1-[2,5-dimethoxy-4-iodophenyl]-2-aminopropane] | – | – | dopamine secretion [2]: promoted dopamine secretion
